“Also recorded” adds a separate entry of the source. Like-named read-outs stand apart in the source and are kept apart here.
Key:
[1] = test system: p53-deficient (HT29) cell line; assay: CTG cell proliferation assay, HT29 cell line; format: cell-based; details: for IC50: read-out: IC50
Protocol: (§1) Each CTG cell proliferation assay included the steps as follows: • 1) An H460 or HT29 cell suspension was added to a 96-well plate at 100 μL per well so that each well contained 2000 or 10000 cells. • 2) The cells were incubated overnight at 37° C. in an incubator with 5% CO2. • 3) Treatment with Compounds
(§2) Combination therapy: 1 μL of adavosertib (at four concentrations), AZD7762 (at four concentrations), palbociclib (at four concentrations) or ceralasertib (at three concentrations) was added to each well and shaken gently until homogeneous mixing.
(§3) 7) Chemiluminescence was read for 1000 ms on a multimode microplate reader. • 8) IC50 (half-maximal inhibitory concentration) values of the compounds were calculated using the GraphPad Prism 5 software. 1.

[2] = test system: wild-type p53-expressing (H460) cell line; assay: CTG cell proliferation assay, H460 cell line; format: cell-based; details: for IC50: Homo sapiens, read-out: IC50
Protocol: as §1, §2, §3

[3] = HT29 (p53-deficient), various concentrations, also low
[4] = H460 (wild-type p53), both drugs at low concentrations

C[C@H](OP(=O)(N1CC1)N1CC1)c1ccc([N+](=O)[O-])c(Oc2cccc(C(=O)N(C)C)c2)c1 [AST-3424, (S)-1-(3-(3-N,N-dimethylaminocarbonyl)phenoxyl-4-nitrophenyl)-1-ethyl-N,N′-bis(ethylene)phosphoramidate] was tested, and the “additive cytotoxic effect in combination therapy with ceralasertib” value ([1]; HT29 (p53-deficient), various concentrations) was “very significant additive effects; also recorded: significant additive cytotoxic effects”, the “additive cytotoxic effect in combination therapy with AZD7762” value (“additive cytotoxic effect … with AZD7762” below) [1, 3] was “significant additive cytotoxic effects” and the “additive cytotoxic effect in combination therapy with adavosertib” value (from here on “additive cytotoxic effect … with adavosertib”) [1, 3] was “significant additive cytotoxic effects”. The “additive cytotoxic effect in combination therapy with palbociclib” value [1, 3] was “significant additive cytotoxic effects”, the Ratio single/combo ([1]; HT29, 0.44 μM ceralasertib 2 h-pretreatment + AST-3424-72 h-cotreatment) was 37.56 and the Ratio single/combo ([1]; HT29, 0.44 μM ceralasertib + AST-3424 72 h, simultaneously) was 51.53. The Ratio single/combo ([1]; HT29, AST-3424-2 h-pretreatment + 0.44 μM ceralasertib-72 h-cotreatment) was 52.44, the Ratio single/combo ([1]; HT29, IC50 monotherapy / IC50 with 50 nM palbociclib) was 1.17 and the Ratio single/combo ([1]; HT29, IC50 monotherapy / IC50 with 100 nM AZD7762) was 65.70. The Ratio single/combo ([1]; HT29, IC50 monotherapy / IC50 with 100 nM adavosertib) was 40.17, the Ratio single/combo ([1]; HT29, IC50 monotherapy / IC50 with 130 nM AZD7762) was 70.63 and the Ratio single/combo ([1]; HT29, IC50 monotherapy / IC50 with 130 nM adavosertib) was 55.39. The Ratio single/combo ([1]; HT29, IC50 monotherapy / IC50 with 160 nM AZD7762) was 71.82, the Ratio single/combo ([1]; HT29, IC50 monotherapy / IC50 with 160 nM adavosertib) was 70.63 and the Ratio single/combo ([1]; HT29, IC50 monotherapy / IC50 with 1000 nM palbociclib) was 1.92. For the same compound, the Ratio single/combo ([1]; HT29, IC50 monotherapy / IC50 with 5000 nM palbociclib) was 2.34, the “influence of the order of adding drugs on additive cytotoxic effect with ceralasertib” value ([1]; HT29, different orders of adding AST-3424 and 0.44 μM ceralasertib) was “did not show any differences” and the IC50 ([1]; HT29, monotherapy, 72 h) was 73.4 nM. For the same compound, the IC50 ([1]; Homo sapiens, HT-29, 72 h, HT29, 0.44 μM ceralasertib + AST-3424 72 h, simultaneously) was 1.72 nM, the IC50 ([1]; Homo sapiens, HT-29, 72 h, HT29, monotherapy, 72 h) was 84.8 nM and the IC50 ([1]; Homo sapiens, HT-29, HT29, 0.44 μM ceralasertib 2 h-pretreatment + AST-3424-72 h-cotreatment) was 2.36 nM. For the same compound, the IC50 ([1]; Homo sapiens, HT-29, HT29, AST-3424-2 h-pretreatment + 0.44 μM ceralasertib-72 h-cotreatment) was 1.69 nM, the IC50 ([1]; Homo sapiens, HT-29, HT29, monotherapy, first assay) was 129 nM and the IC50 ([1]; Homo sapiens, HT-29, HT29, monotherapy, order-of-addition assay) was 88.6 nM. It also gave an IC50 ([1]; Homo sapiens, HT-29, HT29, monotherapy, second assay) of 99 nM, an IC50 ([1]; Homo sapiens, HT-29, HT29, with 0.04 μM ceralasertib, first assay) of 3.26 nM and an IC50 ([1]; Homo sapiens, HT-29, HT29, with 0.04 μM ceralasertib, second assay) of 1.62 nM. For the same compound, the IC50 ([1]; Homo sapiens, HT-29, HT29, with 50 nM palbociclib (2 h pretreatment), 72 h) was 62.5 nM, the IC50 ([1]; Homo sapiens, HT-29, HT29, with 100 nM AZD7762 (2 h pretreatment), 72 h) was 1.29 nM and the IC50 ([1]; Homo sapiens, HT-29, HT29, with 100 nM adavosertib (2 h pretreatment), 72 h) was 2.11 nM. It also gave an IC50 ([1]; Homo sapiens, HT-29, HT29, with 130 nM AZD7762 (2 h pretreatment), 72 h) of 1.2 nM, an IC50 ([1]; Homo sapiens, HT-29, HT29, with 130 nM adavosertib (2 h pretreatment), 72 h) of 1.52 nM and an IC50 ([1]; Homo sapiens, HT-29, HT29, with 160 nM AZD7762 (2 h pretreatment), 72 h) of 1.18 nM. It also gave an IC50 ([1]; Homo sapiens, HT-29, HT29, with 160 nM adavosertib (2 h pretreatment), 72 h) of 1.2 nM, an IC50 ([1]; Homo sapiens, HT-29, HT29, with 1000 nM palbociclib (2 h pretreatment), 72 h) of 38.1 nM and an IC50 ([1]; Homo sapiens, HT-29, HT29, with 1.3 μM ceralasertib, first assay) of 1.42 nM. For the same compound, the IC50 ([1]; Homo sapiens, HT-29, HT29, with 1.3 μM ceralasertib, second assay) was 1.21 nM, the IC50 ([1]; Homo sapiens, HT-29, HT29, with 2 μM ceralasertib, first assay) was 2.41 nM and the IC50 ([1]; Homo sapiens, HT-29, HT29, with 2 μM ceralasertib, second assay) was 1.23 nM. For the same compound, the IC50 ([1]; Homo sapiens, HT-29, HT29, with 5000 nM palbociclib (2 h pretreatment), 72 h) was 31.4 nM, the “additive cytotoxic effect in combination therapy with ceralasertib” value ([2]; H460 (wild-type p53)) was “significant additive cytotoxic effect” and the “additive cytotoxic effect in combination therapy with palbociclib” value ([2]; H460 (wild-type p53), all concentrations) was “did not exhibit any significant additive cytotoxic effects”. For the same compound, the “additive cytotoxic effect … with AZD7762” value [2, 4] was “not significant”, the “additive cytotoxic effect … with adavosertib” value [2, 4] was “not significant” and the “additive cytotoxic effect in combination therapy with ceralasertib” value [2, 4] was “not significant”. For the same compound, the “additive cytotoxic effect … with AZD7762” value ([2]; H460 (wild-type p53), medium and high concentrations) was “certain additive cytotoxic effects”, the “additive cytotoxic effect in combination therapy with ceralasertib” value ([2]; H460 (wild-type p53), medium or high concentration) was “certain additive cytotoxic effects” and the “additive cytotoxic effect … with adavosertib” value ([2]; H460 (wild-type p53), medium or high concentrations) was “certain additive cytotoxic effects”. For the same compound, the Ratio combo/single ([2]; H460, 0.15 μM ceralasertib, first assay) was 6.67, the Ratio combo/single ([2]; H460, 0.15 μM ceralasertib, second assay) was 4.00 and the Ratio combo/single ([2]; H460, 0.44 μM ceralasertib, first assay) was 20.00. It also gave a Ratio combo/single ([2]; H460, 0.44 μM ceralasertib, second assay) of 24.00, a Ratio combo/single ([2]; H460, 1.3 μM ceralasertib, first assay) of 13.33 and a Ratio combo/single ([2]; H460, 1.3 μM ceralasertib, second assay) of 12.00. It also gave a Ratio single/combo ([2]; H460, IC50 monotherapy / IC50 with 0.5 nM AZD7762) of 1.03, a Ratio single/combo ([2]; H460, IC50 monotherapy / IC50 with 0.5 nM adavosertib) of 1.10 and a Ratio single/combo ([2]; H460, IC50 monotherapy / IC50 with 6.4 nM AZD7762) of 0.73. The Ratio single/combo ([2]; H460, IC50 monotherapy / IC50 with 6.4 nM adavosertib) was 1.26, the Ratio single/combo ([2]; H460, IC50 monotherapy / IC50 with 160 nM AZD7762) was 2.13 and the Ratio single/combo ([2]; H460, IC50 monotherapy / IC50 with 160 nM adavosertib) was 1.79. The Ratio single/combo ([2]; H460, IC50 monotherapy / IC50 with 800 nM adavosertib) was 2.27, the Ratio combo/single ([2]; H460, IC50 with 0.05 nM palbociclib / IC50 monotherapy) was 1.12 and the Ratio combo/single ([2]; H460, IC50 with 0.64 nM palbociclib / IC50 monotherapy) was 1.12. The Ratio combo/single ([2]; H460, IC50 with 400 nM palbociclib / IC50 monotherapy) was 1.24, the IC50 ([2]; NCI-H460, 72 h, H460, monotherapy, 72 h) was 0.34 nM and the IC50 ([2]; NCI-H460, H460, monotherapy, first assay) was 0.4 nM. For the same compound, the IC50 ([2]; NCI-H460, H460, monotherapy, second assay) was 0.24 nM, the IC50 ([2]; NCI-H460, H460, with 0.05 nM palbociclib (2 h pretreatment), 72 h) was 0.38 nM and the IC50 ([2]; NCI-H460, H460, with 0.5 nM AZD7762 (2 h pretreatment), 72 h) was 0.33 nM. It also gave an IC50 ([2]; NCI-H460, H460, with 0.5 nM adavosertib (2 h pretreatment), 72 h) of 0.31 nM, an IC50 ([2]; NCI-H460, H460, with 0.64 nM palbociclib (2 h pretreatment), 72 h) of 0.38 nM and an IC50 ([2]; NCI-H460, H460, with 6.4 nM AZD7762 (2 h pretreatment), 72 h) of 0.47 nM. It also gave an IC50 ([2]; NCI-H460, H460, with 6.4 nM adavosertib (2 h pretreatment), 72 h) of 0.27 nM, an IC50 ([2]; NCI-H460, H460, with 0.15 μM ceralasertib, first assay) of 0.06 nM and an IC50 ([2]; NCI-H460, H460, with 0.15 μM ceralasertib, second assay) of 0.06 nM. It also gave an IC50 ([2]; NCI-H460, H460, with 160 nM AZD7762 (2 h pretreatment), 72 h) of 0.16 nM, an IC50 ([2]; NCI-H460, H460, with 160 nM adavosertib (2 h pretreatment), 72 h) of 0.19 nM and an IC50 ([2]; NCI-H460, H460, with 400 nM palbociclib (2 h pretreatment), 72 h) of 0.42 nM. The IC50 ([2]; NCI-H460, H460, with 0.44 μM ceralasertib, first assay) was 0.02 nM, the IC50 ([2]; NCI-H460, H460, with 0.44 μM ceralasertib, second assay) was 0.01 nM and the IC50 ([2]; NCI-H460, H460, with 800 nM adavosertib (2 h pretreatment), 72 h) was 0.15 nM. It also gave an IC50 ([2]; NCI-H460, H460, with 1.3 μM ceralasertib, first assay) of 0.03 nM and an IC50 ([2]; NCI-H460, H460, with 1.3 μM ceralasertib, second assay) of 0.02 nM.
